Experimental data as given in patent publication US9402839B2, “Selective targeting agents for mitochondria” (University of Pittsburgh—Of the Commonwealth System of …, priority 2006, dated 2016).

Experiments:
[1] = test system: mouse embryonic cells (MEC); type: cell-based
Experimental: Electron paramagnetic resonance (“EPR”) spectroscopy was used to monitor the cellular delivery of compounds 5a and 5b shown in FIG. 2 in mouse embryonic cells (“MEC”).
The following conditions were used during the EPR-based analysis of the integration and reduction of nitroxide Gramicidin S-peptidyl conjugates in MECs. The MECs at a concentration of 10 million MECs per mL were incubated with 10 μM of 4-AT and compound 5a, respectively. Recovered nitroxide radicals in whole cells, mitochondria, and cytosol fractions were resuspended in phosphate buffer saline (“PBS”) in the presence and absence, respectively, of 2 μM K3Fe(CN)6.

MECs [2] = assay: Determination of intracellular superoxide radicals (DHE oxidation, flow cytometry) in ActD-treated MECs; type: cell-based, mouse; details: 10 μM pretreatment, ActD 100 ng/mL; nearly two-fold ActD-induced increase
Experimental: Determination of intracellular superoxide radicals Oxidation-dependent fluorogenic dye, dihydroethidium (“DHE”, Molecular Probes) was used to evaluate intracellular production of superoxide radicals. DHE is cell permeable and, in the presence of superoxide, is oxidized to fluorescent ethidium which intercalates into DNA. The fluorescence of ethidium was measured using a FACscan (BECTON-DICKINSON, Rutherford, N.J.) flow cytometer, equipped with a 488-nm argon ion laser and supplied with the Cell Quest software. Mean fluorescence intensity from 10,000 cells were acquired using a 585-nm bandpass filter (FL-2 channel).

MECs [3] = assay: ActD-induced apoptosis in MECs (PS externalization, caspase-3 activation, DNA fragmentation); type: cell-based, mouse
Excerpt: Cells that annexin V-positive and PI-negative were considered apoptotic.

[4] = test system: rats subjected to volume-controlled hemorrhagic shock; assay: Survival of rats subjected to volume-controlled hemorrhagic shock; type: in vivo, rat
Excerpt: Surgical procedures to obtain vascular access. All study protocols using rats followed the guidelines for the use of experimental animals of the US National Institutes of Health and were approved by the Institutional Animal Care and Use Committee at the University of Pittsburgh.
Male specific pathogen-free Sprague Dawley rats (CHARLES RIVER LABORATORIES, Wilmington, Mass.), weighing 150-250 g, were housed in a temperature-controlled environment with a 12-h light/dark cycle. The rats had free access to food and water. For experiments, rats were anesthetized with intramuscular ketamine HCl (30 mg/kg) and intraperitoneal sodium pentobarbital (35 mg/kg). Animals were kept in a supine position during the experiments. Lidocaine (0.5 ml of a 0.5% solution) was injected subcutaneously to provide local anesthesia at surgical cut-down sites. In order to secure the airway, a tracheotomy was performed and polyethylene tubing (PE 240; BECTON-DICKINSON, Sparks, Md.) was introduced into the trachea. Animals were allowed to breathe spontaneously.
The right femoral artery was cannulated with polyethylene tubing (PE 10). This catheter was attached to a pressure transducer that allowed instantaneous measurement of mean arterial pressure (MAP) during the experiment. For experiments using the pressure-controlled hemorrhagic shock (HS) model, the right jugular vein was exposed, ligated distally, and cannulated with polyethylene tubing (PE 10) in order to withdraw blood. For experiments using the volume-controlled hemorrhagic shock (HS) model, the jugular catheter was used to infuse the resuscitation solution and the right femoral vein, which was cannulated with a silicon catheter (CHRONIC-CATH, NORFOLK MEDICAL, Skokie, Ill.), was used to withdraw blood.
All animals were instrumented within 30 min. Heparin (500 U/kg) was administered immediately after instrumentation through the femoral vein. Animals were placed in a thermal blanket to maintain their body temperature at 37° C. The positioning of the different devices aforementioned was checked postmortem.
Survival of rats subjected to volume-controlled hemorrhagic shock. Following surgical preparation and a 5-min stabilization period to obtain baseline readings, rats were subjected to hemorrhagic shock. Bleeding was carried out in 2 phases.
Initially, 21 ml/kg of blood was withdrawn over 20 min. Immediately thereafter, an additional 12.5 ml/kg of blood was withdrawn over 40 min. […]
Blood pressure was recorded continuously using a commercial strain-gauge transducer, amplifier, and monitor (S90603a, SPACELABS, Redmond, Wash.). […] Hemoglobin concentration [Hb], lactate and glucose concentration were determined using an auto-analyzer (Model ABL 725, […], Westlake, Ohio). […]

`CC(C)C[C@@H](/C=C/[C@H](Cc1ccccc1)C(=O)N1CCC[C@H]1C(=O)N[C@H](C(=O)N[C@@H](CCCNC(=O)OCc1ccccc1)C(=O)NC1CC(C)(C)N([O])C(C)(C)C1)C(C)C)NC(=O)OC(C)(C)C` [XJB-5-131] was tested, and the “EPR triplet signals of nitroxide radicals in MECs and in mitochondria isolated from these cells” value ([1]; 10 μM, no EPR signal in the cytosolic fraction) was “Distinctive characteristic triplet signals of nitroxide radicals were detected”, the “integration and one-electron reduction in MECs (EPR signal increase upon ferricyanide)” value ([1]; 10 μM, with and without K3Fe(CN)6) was “resulted in integration and one-electron reduction” and the “concentration in the mitochondria of cultured mouse embryonic cells” value ([1]; after incubation with solutions of the compounds) was “concentrated in the mitochondria”. For the same molecule, the “intracellular superoxide generation in MECs” value (MECs [2]) was “completely inhibited”, the DNA fragmentation (MECs [3]; 10 μM, ActD 100 ng/mL) was “prevented DNA fragmentation” and the “PS externalization (annexin V-positive cells)” value (MECs [3]; 10 μM, ActD 100 ng/mL) was “reduced the number of annexin V-positive cells”. The caspase-3 activation (MECs [3]; 10 μM, ActD 100 ng/mL) was “prevented caspase-3 activation”, the “anti-apoptotic protection / cytotoxicity at higher concentrations” value (MECs [3]; concentrations in excess of 10 μM) was “either less protective or exhibited cytotoxicity” and the “rats surviving longer than 3 hours after completion of the hemorrhage protocol” value ([4]; 2 μmol/kg i.v.) was “Three of the six”. The “survival versus vehicle-treated rats” value ([4]; 2 μmol/kg i.v. infusion during last 20 min of hemorrhage, no resuscitation) was “survived significantly longer”, the “rats surviving the whole 6 hour post-bleeding observation period” value ([4]; 2 μmol/kg i.v., six rats) was “one” and the “beneficial dose, times smaller than the TEMPOL dose of previous studies” value ([4]; ~0.1 mg/kg versus TEMPOL 30 mg/kg bolus+30 mg/kg per h) was “about 300 fold”.
